Data from patent US8765735B2, “Isoxazolines as inhibitors of fatty acid amide hydrolase” (Infinity Pharmaceuticals, Inc., priority 2009, dated 2014).

Each compound was assayed against T1, human FAAH (Homo sapiens, UniProt O00519) (assay: Inhibition of human FAAH (fluorescence assay, AMC arachidonoyl amide substrate)). Conditions: solubilized human FAAH from transfected COS-7 cells; 30 min preincubation; 20 μM AMC-arachidonoyl amide; 4 h at room temperature.
T1 construct: host or cells: COS-7 cells, transient transfection; 13,000 g membrane fraction solubilised in 1% Triton X-100
T1 sequence (O00519 1-579): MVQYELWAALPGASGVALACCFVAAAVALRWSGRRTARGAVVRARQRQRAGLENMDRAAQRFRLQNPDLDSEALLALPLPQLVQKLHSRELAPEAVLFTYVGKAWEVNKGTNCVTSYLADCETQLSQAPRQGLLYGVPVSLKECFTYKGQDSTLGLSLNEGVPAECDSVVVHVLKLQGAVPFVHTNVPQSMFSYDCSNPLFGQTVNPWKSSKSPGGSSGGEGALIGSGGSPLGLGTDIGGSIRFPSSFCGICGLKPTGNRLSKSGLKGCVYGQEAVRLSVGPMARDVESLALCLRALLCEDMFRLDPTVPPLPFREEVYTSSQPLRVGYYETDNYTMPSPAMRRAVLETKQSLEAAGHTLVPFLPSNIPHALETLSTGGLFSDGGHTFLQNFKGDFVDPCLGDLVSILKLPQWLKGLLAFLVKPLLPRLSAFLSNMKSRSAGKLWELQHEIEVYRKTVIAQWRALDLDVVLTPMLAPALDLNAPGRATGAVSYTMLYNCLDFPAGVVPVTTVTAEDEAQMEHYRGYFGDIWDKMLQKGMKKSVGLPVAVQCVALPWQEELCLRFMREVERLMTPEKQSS
Type: biochemical
Description: Human FAAH Preparation: COS-7 cells were split the day before, 1:5 into 150 mm×25 mm cell culture dishes (Corning Inc., Cat. No. 430599). Transient transfection took place at 30-40% confluency according to FuGENE 6 Transfection Reagent (Roche, Cat. No. 11814 443 001).
Transfection Procedure: The FuGENE transfection 6 reagent (45 uL) was added to 1410 μL of media (DMEM, serum free without pen/strep) in a 15 mL conical tube and incubated at room temp for 5 minutes, followed by the addition of FAAH plasmid DNA (15 μg) (OriGene Cat. No. TC119221, Genbank Accession No. NM_001441.1, 0.67 ug/uL) and a further incubation of 15 minutes at room temperature. The resulting solution was added into one dish of 30-40% confluent COS-7 cells in a drop-wise manner. The COS-7 cell dish was subsequently incubated for 48 hours. The cells are then harvested.
Harvest procedure: Media was aspirated from the dishes and the cells rinsed with 10 mL PBS. The PBS was removed and 3 mL of PBS added to the dish. The dish was scraped to resuspend the cells, and the subsequent cell suspension collected into a 15 mL conical tube. The cells were pelleted by centrifugation at 1200 rpm for 5 minutes in a bench top centrifuge. PBS was removed and the cell pellet snap frozen in liquid nitrogen and stored at −80° C.
COS-7 cells—FAAH purification: • (1) Fractionation: Frozen cell pellets from transient transfections were thawed on ice and resuspended in 12.5 mM Hepes pH 8.0, 100 mM NaCl, 1 mM EDTA (10 mL/0.2 g cell pellet). The pellets were dounce homogenized and then sonicated to produce cell extract. The cell extract was subsequently centrifuged at 1000 g to remove cellular debris. The pellet was discarded and the supernatant centrifuged at 13,000 g for 20 minutes. The pellet contained membrane bound FAAH. The supernatant was discarded and the pellet resolubilized. • (2) Re-solubilization: The fraction of interest, (13,000 g, membrane fraction) was re-suspended in 2.3 mL re-suspension buffer (20 mM Hepes pH 7.8, 10% v/v Glycerol, 1 mM EDTA, 1% Triton X-100) and the sample incubated on ice for 1 hour and then centrifuged to remove any particulate matter. The supernatant containing solubilized human FAAH was aliquoted and snap frozen in liquid nitrogen and stored at 80° C. until use. • (3) Characterization: Protein Concentration determined by Bradford assay. • SDS gel and Western blot to confirm presence of FAAH • FAAH activity assay • Km determination—96-well assay • Linear dependence—96-well assay • Standard compound Ki determination—384-well assay
Human FAAH assay; Experimental Protocol: A 0.1 mg/mL Human FAAH solution was made up in FAAH reaction buffer, and 24 ul pipeted into a 384 well plate. To this was added 1 μL of a 3 fold serially diluted inhibitor from a DMSO stock solution. The FAAH solution and inhibitor were incubated for 30 minutes at room temperature. The FAAH reaction was initiated by the addition of 25 μL of 40 μM AMC Arachidonoyl Amide in FAAH reaction buffer, yielding a final reaction human FAAH preparation concentration of 0.05 mg/ml and AMC-Arachidonoyl substrate concentration of 20 μM, reaction volume 50 μL. The reaction was allowed to proceed for 4 hours at room temperature. The reaction was stopped by the addition of 25 μL 12 μM a-ketoheterocycle (Cayman Chemicals, catalogue #10435). The microtiter plate was read in the envision plate reader.
The raw fluorescence was plotted on the y axis and the inhibitor concentration on the x axis to give a dose response inhibition curve. The data was fitted to a single site competitive inhibition equation, fixing the Km for the human enzyme to 12 μM and 9 μM respectively.
With COc1ccc(CN2CCC3(CC2)CC(Br)=NO3)cc1 [III-21] the Ki was ≤ 0.1 µM.
In the case of CC(C)(C)OC(=O)N1CCC2(CC1)CC(Br)=NO2 [III-9], the Ki is reported as ≤ 0.1 µM.
With CC(C)(C)OC(=O)N1CCC[C@@]2(CC(Br)=NO2)C1 [III-10a] the Ki was ≥ 1 µM.
In the case of Clc1ccc(CN2CC3ON=C(Br)C3C2)cc1 (stereo not shown) [III-45], the Ki is reported as ≥ 1 µM.
For Cc1ccc(CN2CCC3(CC2)CC(Br)=NO3)cc1 [III-24], the Ki was ≤ 0.1 µM.
With FC(F)(F)Oc1ccc2c(c1)CC[C@]21CC(Oc2cncc(-c3nnco3)c2)=NO1 [III-73b] the Ki was ≤ 0.1 µM.
CS(=O)(=O)c1ccc(OC2=NO[C@]3(CCc4cc(OC(F)(F)F)ccc43)C2)cn1 [III-68a] was tested, and the Ki was ≤ 0.1 µM.
For O=C(CCc1ccccc1)N1CCC2(CC1)CC(Br)=NO2 [III-34], the Ki was ≤ 0.1 µM.
CSc1ccc(OC2=NO[C@]3(CCc4cc(OC(F)(F)F)ccc43)C2)cn1 [III-67a] was tested, and the Ki was ≤ 0.1 µM.
BrC1=NOC2(CCC3(CC2)OCCO3)C1 [III-4] was tested, and the Ki was ≥ 1 µM.
For BrC1=NOC2(CCN(CC3CCCCC3)CC2)C1 [III-32], the Ki was ≤ 0.1 µM.
In the case of BrC1=NO[C@@]2(CCc3cc(Oc4ccccc4)ccc32)C1 [III-63b], the Ki is reported as ≤ 0.1 µM.
CC(C)(C)OC(=O)N1C[C@@H]2C(Br)=NO[C@@H]2C1 [III-43a] was tested, and the Ki was 0.1 to 1 µM.
Work on CC(C)(C)CN1CCC2(CC1)CC(Br)=NO2 [III-33] yielded a Ki of 0.1 to 1 µM.
In the case of FC(F)(F)Oc1ccc2c(c1)CC[C@@]21CC(Oc2cncc(-c3nnco3)c2)=NO1 [III-73a], the Ki is reported as ≤ 0.1 µM.
Work on O=C(CCc1ccccc1)N1CCC2(CC1)CC(Oc1cncnc1)=NO2 [III-54] yielded a Ki of 0.1 to 1 µM.
With Cn1cc(-c2ccc(OC3=NO[C@]4(CCc5cc(OC(F)(F)F)ccc54)C3)cn2)cn1 [III-70a] the Ki was ≤ 0.1 µM.
O=C(OCc1ccccc1)N1CCC2(CC1)CC(Oc1cccnc1)=NO2 [III-46] was tested, and the Ki was ≤ 0.1 µM.
In the case of Clc1ccc(CN2CCC3(CC2)CC(Oc2cccnc2)=NO3)cc1 [III-51], the Ki is reported as ≤ 0.1 µM.
In the case of O=C(Oc1ccccc1)N1CCC2(CC1)CC(Br)=NO2 [III-37], the Ki is reported as ≤ 0.1 µM.
In the case of CC(C)(C)OC(=O)N1CC[C@@]2(CC(Br)=NO2)C1 [III-11a], the Ki is reported as 0.1 to 1 µM.
BrC1=NO[C@@]2(CCCc3cc(Oc4ccccc4)ccc32)C1 [III-62b] was tested, and the Ki was ≤ 0.1 µM.
Work on BrC1=NOC2(CCN(Cc3ccccn3)CC2)C1 [III-22] yielded a Ki of 0.1 to 1 µM.
In the case of COc1ccc(COC(=O)N2CCC3(CC2)CC(Br)=NO3)cc1 [III-39], the Ki is reported as ≤ 0.1 µM.
With CC(C)(C)OC(=O)N1CC[C@]2(CC(Br)=NO2)C1 [III-11b] the Ki was 0.1 to 1 µM.
Work on CC(C)(C)[C@H]1CC[C@]2(CC1)CC(Br)=NO2 [III-2a] yielded a Ki of 0.1 to 1 µM.
In the case of FC(F)(F)Oc1ccc2c(c1)CC[C@]21CC(Br)=NO1 [III-66b], the Ki is reported as ≤ 0.1 µM.
For O=C(c1ccc(Cl)cc1)N1CCC2(CC1)CC(Oc1cncnc1)=NO2 [III-55], the Ki was ≤ 0.1 µM.
With BrC1=NOC2(CCCCC2)C1 [III-1] the Ki was ≤ 0.1 µM.
BrC1=NOC2(CCN(c3ccccc3)CC2)C1 [III-30] showed a Ki of 0.1 to 1 µM.
In the case of CC(C)(C)OC(=O)N1CCC[C@]2(CC1)CC(Br)=NO2 [III-12b], the Ki is reported as ≤ 0.1 µM.
In the case of BrC1=NO[C@]2(CC[C@@H](c3ccccc3)CC2)C1 [III-3b], the Ki is reported as ≤ 0.1 µM.
In the case of CS(=O)(=O)c1ccc(OC2=NO[C@@]3(CCc4cc(OC(F)(F)F)ccc43)C2)cn1 [III-68b], the Ki is reported as ≤ 0.1 µM.
For Clc1ccc(CN2CCC3(CC2)CC(Br)=NO3)cc1 [III-20], the Ki was ≤ 0.1 µM.
Clc1cccc(CN2CCC3(CC2)CC(Br)=NO3)c1 [III-27] was tested, and the Ki was ≤ 0.1 µM.
With O=C(OCc1ccc(Cl)cc1)N1CCC2(CC1)CC(Br)=NO2 [III-40] the Ki was ≤ 0.1 µM.
CSc1ccc(OC2=NO[C@@]3(CCc4cc(OC(F)(F)F)ccc43)C2)cn1 [III-67b] was tested, and the Ki was ≤ 0.1 µM.
With C#Cc1ccc(CN2CCC3(CC2)CC(Br)=NO3)cc1 [III-49] the Ki was ≤ 0.1 µM.
With CC(C)(C)OC(=O)N1CCC[C@]2(CC(Br)=NO2)C1 [III-10b] the Ki was ≥ 1 µM.
FC(F)(F)Oc1ccc2c(c1)CC[C@@]21CC(Br)=NO1 [III-66a] was tested, and the Ki was ≤ 0.1 µM.
O=C(OCc1ccccc1)N1CC2ON=C(Br)C2C1 (stereo not shown) [III-44] was tested, and the Ki was ≤ 0.1 µM.
BrC1=NO[C@]2(CCc3cc(Oc4ccccc4)ccc32)C1 [III-63a] was tested, and the Ki was ≤ 0.1 µM.
With Cn1nccc1-c1ccc(OC2=NO[C@]3(CCc4cc(OC(F)(F)F)ccc43)C2)cn1 [III-71a] the Ki was ≤ 0.1 µM.
With O=C(CCCC(F)(F)F)N1CCC2(CC1)CC(Oc1cncnc1)=NO2 [III-57] the Ki was ≥ 1 µM.
In the case of O=C(Nc1ccccc1)N1CCC2(CC1)CC(Oc1cncnc1)=NO2 [III-56], the Ki is reported as ≥ 1 µM.
Work on BrC1=NOC2(CCN(Cc3cccnc3)CC2)C1 [III-23] yielded a Ki of 0.1 to 1 µM.
With O=C(c1ccccc1)N1CCC2(CC1)CC(Br)=NO2 [III-16] the Ki was ≤ 0.1 µM.
O=S(=O)(c1ccccc1)N1CCC2(CC1)CC(Br)=NO2 [III-17] gave a Ki of 0.1 to 1 µM.
In the case of BrC1=NOC2(CCN(CCCc3ccccc3)CC2)C1 [III-28], the Ki is reported as ≤ 0.1 µM.
Cn1nccc1-c1ccc(OC2=NO[C@@]3(CCc4cc(OC(F)(F)F)ccc43)C2)cn1 [III-71b] was tested, and the Ki was ≤ 0.1 µM.
With BrC1=NOC2(CCN(CCc3ccccc3)CC2)C1 [III-29] the Ki was ≤ 0.1 µM.
With FC(F)(F)c1ccc(CN2CCC3(CC2)CC(Br)=NO3)cc1 [III-26] the Ki was ≤ 0.1 µM.
Compound CC(C)(C)[C@H]1CC[C@@]2(CC1)CC(Br)=NO2 [III-2b] has a Ki of 0.1 to 1 µM.
C#Cc1ccc(CN2CCC3(CC2)CC(Oc2cccnc2)=NO3)cc1 [III-50] was tested, and the Ki was ≤ 0.1 µM.
For O=C(OCc1ccccc1)N1CCC2(CC1)CC(N1CCCC1)=NO2 [III-59], the Ki was ≥ 1 µM.
With BrC1=NO[C@]2(CC[C@H](c3ccccc3)CC2)C1 [III-3a] the Ki was ≤ 0.1 µM.
In the case of CC(C)(C)OC(=O)N1CCC2(CC1)CC(Cl)=NO2 [III-47], the Ki is reported as ≤ 0.1 µM.
For BrC1=NO[C@]2(CCCc3cc(Oc4ccccc4)ccc32)C1 [III-62a], the Ki was ≤ 0.1 µM.
In the case of CC(C)COC(=O)N1CCC2(CC1)CC(Br)=NO2 [III-36], the Ki is reported as ≤ 0.1 µM.
CS(=O)(=O)c1ccc(OC2=NOC3(CCN(C(=O)c4ccccc4)CC3)C2)cn1 [III-58] gave a Ki of 0.1 to 1 µM.
In the case of ClC1=NOC2(CCN(Cc3ccc(Cl)cc3)CC2)C1 [III-48], the Ki is reported as ≤ 0.1 µM.
With CC(=O)N1CCC2(CC1)CC(Br)=NO2 [III-15] the Ki was ≥ 1 µM.
With COC(=O)N1CCC2(CC1)CC(Br)=NO2 [III-35] the Ki was 0.1 to 1 µM.
O=C(OCc1ccccc1)N1CCC2(CC1)CC(Br)=NO2 [III-18] was tested, and the Ki was ≤ 0.1 µM.
In the case of BrC1=NOC2(CCNCC2)C1 [III-14], the Ki is reported as ≥ 1 µM.
For CC(C)(C)OC(=O)N1C2CCC1CC1(CC(Br)=NO1)C2 (stereo not shown) [III-13a], the Ki was ≥ 1 µM.
With BrC1=NOC2(CCN(c3ccc(Br)cc3)CC2)C1 [III-31] the Ki was 0.1 to 1 µM.
With BrC1=NO[C@]2(CC[C@H](COc3ccccc3)CC2)C1 [III-8a] the Ki was ≤ 0.1 µM.
BrC1=NO[C@]2(CC[C@@H](COc3ccccc3)CC2)C1 [III-8b] was tested, and the Ki was ≤ 0.1 µM.
CC(C)(C)OC(=O)N1C[C@@H]2ON=C(Br)[C@@H]2C1 [III-43b] was tested, and the Ki was 0.1 to 1 µM.
